Laboratory results as given in US20180030001A1, “NEW TRIAZINE COMPOUNDS AS PHOTOSTABILIZING AGENTS” (3V Sigma S.P.A., priority 2016, published 2018).

Assay: UVA:UVB ratio (radiation absorbed 320-400 nm vs 290-320 nm) of triazine compounds
Type: physicochemical
Details: versus diethylhexyl butamido triazone and ethylhexyl triazone
From the text: Typically, the numerical UV-A/UV-B ratio of these compounds, defined as the ratio between the intensity of the radiation absorbed between 320 nm and 400 nm (UVA fraction) and that absorbed between 290 nm and 320 nm (UVB fraction), is greater than 0.20, and preferably greater than 0.30, whereas in the analogous triazine compounds with a 4-aminobenzoate or 4-aminobenzamide substituent different from the substituents described in Formula (IV), it is below about 0.14.
The UVA:UVB ratio is the ratio between the intensity of the radiation absorbed between 320 nm and 400 nm (UVA fraction) and that absorbed between 290 nm and 320 nm (UVB fraction).

UVA fraction relative to triazine analogues already known, at least twice as high:
CCCCC(CC)COC(=O)c1ccc(NC(=O)c2ccc(Nc3nc(Nc4ccc(C(=O)OCC(CC)CCCC)cc4)nc(Nc4ccc(C(=O)OCC(CC)CCCC)cc4)n3)cc2)cc1 (stereo not drawn) [Compound of formula (VII)]
CCCCC(CC)COC(=O)c1ccc(NC(=O)c2ccc(Nc3nc(Nc4ccc(C(=O)Nc5ccc(C(=O)OCC(CC)CCCC)cc5)cc4)nc(Nc4ccc(C(=O)NC(C)(C)C)cc4)n3)cc2)cc1 (stereo not drawn) [Compound of formula (V)]
CCCCC(CC)COC(=O)c1ccc(NC(=O)c2ccc(Nc3nc(Nc4ccc(C(=O)NC(C)(C)C)cc4)nc(Nc4ccc(C(=O)OCC(CC)CCCC)cc4)n3)cc2)cc1 (stereo not drawn) [Compound of formula (VI)]
